Activity calls are given as the source filed them. No cut-off for these calls is given here.
Legend:
Staphylococcus aureus [1] = experiment: Antibacterial activity against Staphylococcus aureus ATCC 29213 after 20 passages incubated for 16 to 18 hrs; assay type: functional; details: time 16-18 hrs
Staphylococcus aureus [2] = experiment: Antibacterial activity against methicillin resistant Staphylococcus aureus 20 infected in Kunming mouse skin abscess model assessed as reduction in abscess size at 5 mg/kg, sc measured after 2 hrs; assay type: functional, organism-based
Staphylococcus aureus [3] = experiment: Upregulation of cwrA gene expression in methicillin resistant Staphylococcus aureus N315 at 4 ug/ml incubated for 4 hrs by RNA-sequencing analysis; assay type: functional; details: dose 4.0 µg/ml
Staphylococcus aureus [4] = experiment: Downregulation of srtA gene expression in methicillin resistant Staphylococcus aureus N315 at 4 ug/ml incubated for 4 hrs by RNA-sequencing analysis; assay type: functional; details: dose 4.0 µg/ml
L02 = experiment: Cytotoxicity against human L02 cells assessed as reduction in cell viability incubated for 24 hrs by CCK8 assay; assay type: toxicity, cell-based; details: l02, 24 h
[5] = Hemolytic activity in sheep RBC incubated for 1 hr; assay type: toxicity, cell-based, Ovis aries, Erythrocyte; details: sheep red blood cells (erythrocytes)
Staphylococcus aureus [6] = experiment: Antibacterial activity against methicillin resistant Staphylococcus aureus 20 infected in Kunming mouse skin abscess model assessed as appearance of smooth back skin at 10 mg/kg, sc measured after 2 hrs; assay type: functional, organism-based
Staphylococcus aureus [7] = experiment: Antibacterial activity against methicillin resistant Staphylococcus aureus 20 infected in Kunming mouse skin abscess model assessed as reduction in IL-6 level at 5 to 10 mg/kg, sc measured after 2 hrs by ELISA; assay type: functional, organism-based; details: dose 5-10 mg/kg
Staphylococcus aureus [8] = experiment: Antibacterial activity against methicillin resistant Staphylococcus aureus 20 incubated for 16 to 18 hrs in presence of 2 to 64 ug/ml phosphatidylethanolamine by checkerboard broth dilution method; assay type: functional, organism-based; details: time 16-18 hrs
Staphylococcus aureus [9] = experiment: Antibacterial activity against methicillin resistant Staphylococcus aureus 20 infected in Kunming mouse skin abscess model assessed as reduction in inflammatory cells in infection sites at 5 to 10 mg/kg, sc measured after 2 hrs; assay type: functional, organism-based; details: dose 5-10 mg/kg
[10] = Toxicity in Kunming mouse assessed as change in creatinine level at 20 mg/kg, sc measured after 24 hrs; assay type: organism-based; details: in vivo
Cell membrane [11] = experiment: Induction of membrane disruption in methicillin resistant Staphylococcus aureus 20 assessed as DNA leakage incubated for 4 hrs by microspectrophotometer analysis; assay type: cell membranes; details: dose 2-16 µg/ml
Staphylococcus aureus [12] = experiment: Antibacterial activity against methicillin resistant Staphylococcus aureus M17 incubated for 16 to 18 hrs by broth dilution method; assay type: functional; details: time 16-18 hrs
Cell membrane [13] = experiment: Induction of membrane disruption in methicillin resistant Staphylococcus aureus 20 at 16 ug/ml incubated for 4 hrs by DAPI/PI staining based laser confocal microscopic analysis; details: dose 16.0 µg/ml
[14] = Toxicity in Kunming mouse assessed as kidney abnormalities at 10 mg/kg, sc measured after 24 hrs; assay type: organism-based; details: in vivo
Cell membrane [15] = experiment: Induction of membrane disruption in methicillin resistant Staphylococcus aureus 20 assessed as viable cells with intact membrane at 32 ug/ml incubated for 2 hrs by SYTO9/PI staining based flow cytometry analysis (reference value: 98.7%); assay type: cell membranes; details: dose 32.0 µg/ml
Staphylococcus aureus [16] = experiment: Upregulation of gpsB gene expression in methicillin resistant Staphylococcus aureus N315 at 4 ug/ml incubated for 4 hrs by RNA-sequencing analysis; assay type: functional; details: dose 4.0 µg/ml
Staphylococcus aureus [17] = experiment: Antibacterial activity against methicillin resistant Staphylococcus aureus 20 infected in Kunming mouse skin abscess model assessed as reduction in inflammatory cell infiltration in dermal layer at 10 mg/kg, sc measured after 2 hrs; assay type: functional, organism-based
Cell membrane [18] = experiment: Induction of membrane disruption in methicillin resistant Staphylococcus aureus 20 assessed as intracellular protein leakage incubated for 4 hrs by microspectrophotometer analysis; assay type: cell membranes; details: dose 2-16 µg/ml
Staphylococcus aureus [19] = experiment: Downregulation of sasA gene expression in methicillin resistant Staphylococcus aureus N315 at 4 ug/ml incubated for 4 hrs by RNA-sequencing analysis; assay type: functional; details: dose 4.0 µg/ml
Cell membrane [20] = experiment: Induction of membrane disruption in methicillin resistant Staphylococcus aureus 20 assessed as membrane rupture at 16 times MIC incubated for 4 hrs by SEM analysis
[21] = Toxicity in Kunming mouse assessed as lung abnormalities at 10 mg/kg, sc measured after 24 hrs; assay type: organism-based; details: in vivo
Staphylococcus aureus [22] = experiment: Antibacterial activity against methicillin resistant Staphylococcus aureus M14 incubated for 16 to 18 hrs by broth dilution method; assay type: functional; details: time 16-18 hrs
Staphylococcus aureus [23] = experiment: Upregulation of cidA gene expression in methicillin resistant Staphylococcus aureus N315 at 4 ug/ml incubated for 4 hrs by RNA-sequencing analysis; assay type: functional; details: dose 4.0 µg/ml
Staphylococcus aureus [24] = experiment: Antibacterial activity against methicillin resistant Staphylococcus aureus 20 incubated for 16 to 18 hrs in presence of 2 to 64 ug/ml phosphatidylglycerol by checkerboard broth dilution method; assay type: functional, organism-based; details: time 16-18 hrs
Staphylococcus aureus [25] = experiment: Antibacterial activity against methicillin resistant Staphylococcus aureus 20 infected in Kunming mouse skin abscess model assessed as reduction in severity of skin abscess at 5 mg/kg, sc measured after 2 hrs; assay type: functional, organism-based
[26] = Toxicity in Kunming mouse skin abscess model infected with methicillin resistant Staphylococcus aureus assessed as spleen damage at 5 to 10 mg/kg, sc measured after 2 hrs by H and E staining based assay; assay type: organism-based; details: in vivo, dose 5-10 mg/kg
[27] = Toxicity in Kunming mouse assessed as change in mean corpuscular volume at 20 mg/kg, sc measured after 24 hrs; assay type: organism-based; details: in vivo
Staphylococcus aureus [28] = experiment: Inhibition of protein synthesis in methicillin resistant Staphylococcus aureus N315 at 4 ug/ml incubated for 4 hrs by RNA-sequencing analysis; assay type: functional, organism-based; details: dose 4.0 µg/ml
Staphylococcus aureus [29] = experiment: Inhibition of proline synthesis in methicillin resistant Staphylococcus aureus N315 at 4 ug/ml incubated for 4 hrs by RNA-sequencing analysis; assay type: functional, organism-based; details: dose 4.0 µg/ml
Cell membrane [30] = experiment: Induction of membrane disruption in methicillin resistant Staphylococcus aureus 20 assessed as wrinkled membrane at 16 times MIC incubated for 4 hrs by SEM analysis; assay type: cell membranes
Staphylococcus aureus [31] = experiment: Effect on ABC transporter protein gene expression in methicillin resistant Staphylococcus aureus N315 at 4 ug/ml incubated for 4 hrs by RNA-sequencing analysis; assay type: functional; details: dose 4.0 µg/ml
Staphylococcus aureus [32] = experiment: Inhibition of methionine synthesis in methicillin resistant Staphylococcus aureus N315 at 4 ug/ml incubated for 4 hrs by RNA-sequencing analysis; assay type: functional, organism-based; details: dose 4.0 µg/ml
Staphylococcus aureus [33] = experiment: Antibacterial activity against methicillin resistant Staphylococcus aureus M21 incubated for 16 to 18 hrs by broth dilution method; assay type: functional; details: time 16-18 hrs
Staphylococcus aureus [34] = experiment: Disruption of redox process in methicillin resistant Staphylococcus aureus N315 at 4 ug/ml incubated for 4 hrs by RNA-sequencing analysis; assay type: functional, organism-based; details: dose 4.0 µg/ml
[35] = Toxicity in Kunming mouse assessed as change in white blood cell counts at 20 mg/kg, sc measured after 24 hrs; assay type: organism-based; details: in vivo
Staphylococcus aureus [36] = experiment: Antibacterial activity against methicillin resistant Staphylococcus aureus 20 infected in Kunming mouse skin abscess model assessed as reduction in TNF-alpha level at 5 to 10 mg/kg, sc measured after 2 hrs by ELISA; assay type: functional, organism-based; details: dose 5-10 mg/kg
Staphylococcus aureus [37] = experiment: Antibacterial activity against methicillin resistant Staphylococcus aureus 20 incubated for 16 to 18 hrs in presence of 2 to 64 ug/ml peptidoglycan by checkerboard broth dilution method; assay type: functional, organism-based; details: time 16-18 hrs
[38] = Toxicity in Kunming mouse assessed as effect on survival at 5 to 80 mg/kg, sc measured after 24 hrs; assay type: organism-based; details: in vivo, dose 5-80 mg/kg
Cell membrane [39] = experiment: Induction of membrane disruption in methicillin resistant Staphylococcus aureus 20 assessed as viable cells with intact membrane at 64 ug/ml incubated for 2 hrs by SYTO9/PI staining based flow cytometry analysis (reference value: 98.7%); assay type: cell membranes; details: dose 64.0 µg/ml

Compound: C=CCc1cc(-c2ccc(OCCC[N+](C)(C)CC(=O)NCCCC)c(CC=C)c2)c2oc(-c3c(Cl)cccc3Cl)nc2c1.[Br-]
- MIC (Staphylococcus aureus [1]): 2 µg/mL
- Activity (Staphylococcus aureus [2]): Active
- Activity (Staphylococcus aureus [3]): Active
- Activity (Staphylococcus aureus [4]): Active
- Activity (L02): Dose-Dependent Effect
- HC50 at 1 h [5]: 218 µg/mL
- Activity (Staphylococcus aureus [6]): Active
- Activity (Staphylococcus aureus [7]): Active
- Activity (Staphylococcus aureus [8]): Active
- Activity (Staphylococcus aureus [9]): Active
- Activity [10]: Non-Toxic
- Activity (Cell membrane [11]): Dose-Dependent Effect
- MIC (Staphylococcus aureus [12]): 2 µg/mL
- Activity (Cell membrane [13]): Active
- Activity [14]: Non-Toxic
- Activity (Cell membrane [15]): 0.33%
- Activity (Staphylococcus aureus [16]): Active
- Activity (Staphylococcus aureus [17]): Active
- Activity (Cell membrane [18]): Dose-Dependent Effect
- Activity (Staphylococcus aureus [19]): Active
- Activity (Cell membrane [20]): Active
- Activity [21]: Non-Toxic
- MIC (Staphylococcus aureus [22]): 2 µg/mL
- Activity (Staphylococcus aureus [23]): Active
- Activity (Staphylococcus aureus [24]): inactive
- Activity (Staphylococcus aureus [25]): Active
- Activity [26]: Non-Toxic
- Activity [27]: Non-Toxic
- inhibition (Staphylococcus aureus [28]): Active
- inhibition (Staphylococcus aureus [29]): Active
- Activity (Cell membrane [30]): Active
- Activity (Staphylococcus aureus [31]): Active
- inhibition (Staphylococcus aureus [32]): Active
- MIC (Staphylococcus aureus [33]): 4 µg/mL
- Activity (Staphylococcus aureus [34]): Active
- Activity [35]: Non-Toxic
- Activity (Staphylococcus aureus [36]): Active
- Activity (Staphylococcus aureus [37]): Active
- Activity [38]: Non-Toxic
- Activity (Cell membrane [39]): 0.28%

— ChEMBL document CHEMBL5608246, “Membrane-Targeting Amphiphilic Honokiol Derivatives Containing an Oxazole Moiety as Potential Antibacterials against Methicillin-Resistant Staphylococcus aureus” (J Med Chem, 2024)
